From patent publication US12102633B2, “Spirolactone compounds” (Quixgen, Inc., priority 2017, dated 2024)

Legend:
[1] = tested on: T1, Mouse ACC (ACC protein purified from liver); assay: Mouse ACC enzymatic activity assay; type: biochemical; conditions: read-out: EA-CoA mACC IC50
T1 construct: ACC protein was purified by taking advantage of the biotinylation in the carboxylase domain
Outline: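 ACC affinity-purified from livers of male C57BL/6J mice (biotin-based capture), pre-incubated 10 min at 37 °C with compound. Reaction with 0.5 mM acetyl-CoA, 4.0 mM ATP, 15 mM 13C-NaHCO3, 0.5 mM citrate, pH 7.5, 1 h at 37 °C; malonyl-13C-CoA quantified by LC-MS/MS as pmoles/mg protein per minute.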

[2] = tested on: Human sebocytes; assay: Proliferation of human sebocytes; type: cell-based; conditions: 24 hours, MTT, read-out: AP-Sebo IC50
Procedure: Human sebocytes (Celprogen) and keratinocytes (ATCC) were grown in 96-well culture microplate (Coming) with growth media to around 50% confluency. Media was changed to growth media mixed with serially diluted compounds in DMSO (1:1000 dilution). After treatment for 24 hours, media was changed to 100 μL phenol red free DMEM and cell numbers were quantitated by using Vybrant® MTT Cell Proliferation Assay Kit (Molecular Probes). Ten μL of 12 mM MTT stock solution was added to each well and the microplate was incubated at 37° C. for 4 hours. Then 100 μL of the SDS-HCl solution was added to each well and mixed thoroughly using a pipette. The microplate was incubated at 37° C. for 4 hours in a cell culture incubator. The microplate was mixed again using a pipette and absorbance was read at 570 nm (Dynex MRX^e Magellan Biosciences). Effect of compounds on proliferation of human keratinocytes was calculated by % of DMSO vehicle control.

[3] = tested on: 3T3-L1 adipocytes; assay: Lipogenesis of 3T3-L1 adipocytes; type: cell-based; conditions: Mus musculus, TG readout, read-out: LG-3T3 IC50
Procedure: 3T3-L1 fibroblast cells (Zen-Bio) were grown in 96-well culture microplate (Corning) with growth media to around 90-100% confluency. Culture media was changed to differentiation media (growth media supplemented with 3-Isobutyl-1-Methylxanthine 500 μM, Dexamethasone 1 μM, insulin 10 μg/mL, and rosiglitazone 2 μM) plus serially diluted compounds prepared in DMSO (1:1000 dilution). After incubation for 2 days, media was changed to maintenance media (growth media supplemented with insulin 10 μg/mL) plus serially diluted compounds prepared in DMSO (1:1000 dilution) for around 1 week with media changed every 2 days. Upon completion of the treatment, culture media are discarded and 200 μL 0.01% SDS was added to each well and shaken for 1 hour to lyse the cells. Cell lysates were then transferred to 400 μL Folch's solution (chloroform: methanol=2:1) and mixed well. After centrifuge at 2,000 rpm for 20 min, 200 μL of the lower organic phase was transferred to a plate with 10 μL sample buffer (chloroform:Triton-100=3:1). Samples were blown dried under nitrogen and 200 μL triglyceride (TG) quantification reagent (Thermo Fisher Scientific) was added, mixed, and incubated at 37° C. for 30 min. TG concentration was determined by reading absorbance at 535 nm (Dynex MRX^e Magellan Biosciences) and calculated from standard curve.

| SMILES | IC50 [1] | IC50 [2] | IC50 [3] |
| --- | --- | --- | --- |
| COc1cc(C(=O)N2CCC3(CC2)Cc2ccc(Nc4ccnn4C)cc2C(=O)O3)nc2c(OC)cccc12 [Example 6, 1′-(4,8-dimethoxyquinoline-2-carbonyl)-7-((1-methyl-1H-pyrazol-5-yl)amino)spiro[isochroman-3,4′-piperidin]-1-one] | 0.34 nM | 2.5 nM | 21.9 nM |
| COc1cc(C(=O)N2CCC3(CC2)Cc2ccc(C(C)C)cc2C(=O)O3)nc2c(OC)cccc12 [Example 2, 1′-(4,8-dimethoxyquinoline-2-carbonyl)-7-isopropylspiro[isochroman-3,4′-piperidin]-1-one] | 2.4 nM | 57.1 nM | 0.8 nM |
